Test results published in PMC5218480 (PLoS ONE, 2017).

Tested on: MV-4-11 cells
Assay: Gene expression microarray analysis (Affymetrix PrimeView) and GSEA
Type: cell-based, human
Design: RFU PODN (11730768_x_at) / Fold change /veh PODN (11730768_x_at) / RFU LINC00158 (11744669_a_at) / Fold change /veh LINC00158 (11744669_a_at) / RFU DUSP10 (11751237_a_at) / Fold change /veh DUSP10 (11751237_a_at) / RFU ID3 (11757404_x_at) / Fold change /veh ID3 (11757404_x_at) / RFU PLEKHG5 (11737974_s_at) / Fold change /veh PLEKHG5 (11737974_s_at) / RFU LRRC4B (11730491_at) / Fold change /veh LRRC4B (11730491_at) / RFU GIMAP4 (11747438_a_at) / Fold change /veh GIMAP4 (11747438_a_at) / RFU KRT8 (11758183_x_at) / Fold change /veh KRT8 (11758183_x_at) / RFU CNN1 (11734310_a_at) / Fold change /veh CNN1 (11734310_a_at) / RFU VPS37D (11726825_at) / Fold change /veh VPS37D (11726825_at) / RFU C10orf10 (11716522_x_at) / Fold change /veh C10orf10 (11716522_x_at) / RFU KIR2DL2 /// KIR2DL4 /// KIR2DL5A /// KIR2DL5B /// KIR2DS1 /// KIR2DS2 /// KIR2DS3 /// KIR2DS4 /// KIR3DL3 /// KIR3DL3 /// KIR3DS1 (11738374_at) / Fold change /veh KIR2DL2 /// KIR2DL4 /// KIR2DL5A /// KIR2DL5B /// KIR2DS1 /// KIR2DS2 /// KIR2DS3 /// KIR2DS4 /// KIR3DL3 /// KIR3DL3 /// KIR3DS1 (11738374_at) / RFU C1QL1 (11718748_at) / Fold change /veh C1QL1 (11718748_at) / RFU TMPRSS4 (11747572_a_at) / Fold change /veh TMPRSS4 (11747572_a_at) / RFU HAMP (11756126_x_at) / Fold change /veh HAMP (11756126_x_at) / RFU RNFT2 (11725882_a_at) / Fold change /veh RNFT2 (11725882_a_at) / RFU NR4A2 (11747474_a_at) / Fold change /veh NR4A2 (11747474_a_at) / RFU ABCC12 (11746883_a_at) / Fold change /veh ABCC12 (11746883_a_at) / RFU TMEM136 (11760407_x_at) / Fold change /veh TMEM136 (11760407_x_at) / RFU CLDN22 /// WWC2 (11732394_at) / Fold change /veh CLDN22 /// WWC2 (11732394_at) / RFU HLA-DPB1 (11760878_x_at) / Fold change /veh HLA-DPB1 (11760878_x_at) / RFU SPINT1 (11716480_a_at) / Fold change /veh SPINT1 (11716480_a_at) / RFU GAP43 (11754022_s_at) / Fold change /veh GAP43 (11754022_s_at) / RFU A4GNT (11735810_at) / Fold change /veh A4GNT (11735810_at) / RFU PRB3 (11715151_x_at) / Fold change /veh PRB3 (11715151_x_at) / RFU TUBB4B (11761932_at) / Fold change /veh TUBB4B (11761932_at) / RFU CAPN14 (11732068_a_at) / Fold change /veh CAPN14 (11732068_a_at) / RFU TMCC2 (11721928_a_at) / Fold change /veh TMCC2 (11721928_a_at) / RFU IRGQ (11745062_a_at) / Fold change /veh IRGQ (11745062_a_at) / RFU FAM174B (11720279_a_at) / Fold change /veh FAM174B (11720279_a_at) / RFU TMPRSS4 (11748680_a_at) / Fold change /veh TMPRSS4 (11748680_a_at) / RFU FAM212B (11763350_a_at) / Fold change /veh FAM212B (11763350_a_at) / RFU PLEKHG5 (11743358_a_at) / Fold change /veh PLEKHG5 (11743358_a_at) / RFU ZSCAN30 (11745921_a_at) / Fold change /veh ZSCAN30 (11745921_a_at) / RFU CMKLR1 (11741424_a_at) / Fold change /veh CMKLR1 (11741424_a_at) / RFU LOC101060620 /// MAPK8IP1 (11723275_at) / Fold change /veh LOC101060620 /// MAPK8IP1 (11723275_at) / RFU SPTSSB (11747773_x_at) / Fold change /veh SPTSSB (11747773_x_at) / RFU PRSS12 (11739890_at) / Fold change /veh PRSS12 (11739890_at) / RFU BIN1 (11741810_x_at) / Fold change /veh BIN1 (11741810_x_at) / RFU WNT11 (11732464_a_at) / Fold change /veh WNT11 (11732464_a_at) / RFU C10orf10 (11716521_a_at) / Fold change /veh C10orf10 (11716521_a_at) / RFU C5orf56 (11738089_at) / Fold change /veh C5orf56 (11738089_at) / RFU CYB561 (11721691_x_at) / Fold change /veh CYB561 (11721691_x_at) / RFU ANKRD19P (11752326_a_at) / Fold change /veh ANKRD19P (11752326_a_at) / RFU OR2T12 /// OR2T33 /// OR2T8 (11738714_s_at) / Fold change /veh OR2T12 /// OR2T33 /// OR2T8 (11738714_s_at) / RFU VCAN (11748164_a_at) / Fold change /veh VCAN (11748164_a_at) / RFU JSRP1 (11732532_at) / Fold change /veh JSRP1 (11732532_at) / RFU KRTAP10-11 (11738290_x_at) / Fold change /veh KRTAP10-11 (11738290_x_at) / RFU MYO3A (11730013_a_at) / Fold change /veh MYO3A (11730013_a_at) / RFU EBF3 (11725865_a_at) / Fold change /veh EBF3 (11725865_a_at) / RFU CAMK2N1 (11719241_x_at) / Fold change /veh CAMK2N1 (11719241_x_at) / RFU C5orf56 (11738088_a_at) / Fold change /veh C5orf56 (11738088_a_at) / RFU OLFML3 (11715873_a_at) / Fold change /veh OLFML3 (11715873_a_at) / RFU LOC100653217 /// NTM (11731650_a_at) / Fold change /veh LOC100653217 /// NTM (11731650_a_at) / RFU MAPK11 (11762145_a_at) / Fold change /veh MAPK11 (11762145_a_at) / RFU FIZ1 (11724087_x_at) / Fold change /veh FIZ1 (11724087_x_at) / RFU OASL (11726364_x_at) / Fold change /veh OASL (11726364_x_at) / RFU SOX15 (11748057_x_at) / Fold change /veh SOX15 (11748057_x_at) / RFU CD79A (11719716_a_at) / Fold change /veh CD79A (11719716_a_at) / RFU HIST1H1D (11736915_at) / Fold change /veh HIST1H1D (11736915_at) / RFU CASKIN2 (11723855_a_at) / Fold change /veh CASKIN2 (11723855_a_at) / RFU LOC730098 (11760151_x_at) / Fold change /veh LOC730098 (11760151_x_at) / RFU OR4N2 (11742367_at) / Fold change /veh OR4N2 (11742367_at) / RFU PRRT2 (11749266_a_at) / Fold change /veh PRRT2 (11749266_a_at) / RFU SNX32 (11753110_a_at) / Fold change /veh SNX32 (11753110_a_at) / RFU CDHR5 (11726645_a_at) / Fold change /veh CDHR5 (11726645_a_at) / RFU RCAN1 (11760418_a_at) / Fold change /veh RCAN1 (11760418_a_at) / RFU FAM167A (11723789_a_at) / Fold change /veh FAM167A (11723789_a_at) / RFU FAM26E (11764081_at) / Fold change /veh FAM26E (11764081_at) / RFU ISYNA1 (11749810_s_at) / Fold change /veh ISYNA1 (11749810_s_at) / RFU ACY1 (11761880_at) / Fold change /veh ACY1 (11761880_at) / RFU 11764098_at / Fold change /veh 11764098_at / RFU SAMD14 (11745864_x_at) / Fold change /veh SAMD14 (11745864_x_at) / RFU NPB (11741838_a_at) / Fold change /veh NPB (11741838_a_at) / RFU TMPRSS6 (11731388_a_at) / Fold change /veh TMPRSS6 (11731388_a_at) / RFU KRTAP10-2 (11738614_at) / Fold change /veh KRTAP10-2 (11738614_at) / RFU ARHGAP8 /// PRR5-ARHGAP8 (11727945_x_at) / Fold change /veh ARHGAP8 /// PRR5-ARHGAP8 (11727945_x_at) / RFU KRTAP5-7 /// NADSYN1 (11734609_at) / Fold change /veh KRTAP5-7 /// NADSYN1 (11734609_at) / RFU RASL12 (11751679_a_at) / Fold change /veh RASL12 (11751679_a_at) / RFU CDKN2B (11736163_a_at) / Fold change /veh CDKN2B (11736163_a_at) / RFU PRF1 (11729649_at) / Fold change /veh PRF1 (11729649_at) / RFU, ZNF638 /// ZNF638-IT1 / Fold change vs veh, ZNF638 /// ZNF638-IT1 / RFU, PANK3 / Fold change vs veh, PANK3 / RFU, SH3YL1 / Fold change vs veh, SH3YL1 / RFU, ZEB2 / Fold change vs veh, ZEB2 / RFU, NRIP1 / Fold change vs veh, NRIP1 / RFU, PTTG1IP / Fold change vs veh, PTTG1IP / RFU, CAPN2 / Fold change vs veh, CAPN2 / RFU, MED14 / Fold change vs veh, MED14 / RFU, SNORA58 / Fold change vs veh, SNORA58 / RFU, C1orf63 / Fold change vs veh, C1orf63 / RFU, LRRFIP1 / Fold change vs veh, LRRFIP1 / RFU, NDUFAF7 / Fold change vs veh, NDUFAF7 / RFU, SLC12A2 / Fold change vs veh, SLC12A2 / RFU, IBTK / Fold change vs veh, IBTK / RFU, ESF1 / Fold change vs veh, ESF1 / Fold change vs veh, TMEM50B / RFU, TAOK1 / Fold change vs veh, TAOK1 / RFU, ACBD3 / Fold change vs veh, ACBD3 / RFU, TMA16 / Fold change vs veh, TMA16 / RFU, RWDD3 / Fold change vs veh, RWDD3 / RFU, BCAT1 / Fold change vs veh, BCAT1 / RFU, EDEM3 / Fold change vs veh, EDEM3 / RFU, TMEM33 / Fold change vs veh, TMEM33 / RFU, WDR75 / Fold change vs veh, WDR75 / RFU, AHCTF1 / Fold change vs veh, AHCTF1 / RFU, TFRC / Fold change vs veh, TFRC / RFU, ZDHHC17 / Fold change vs veh, ZDHHC17 / RFU, NOM1 / Fold change vs veh, NOM1 / RFU, ARL8B / Fold change vs veh, ARL8B / RFU, ZBTB11 / Fold change vs veh, ZBTB11 / RFU, TAMM41 / Fold change vs veh, TAMM41 / RFU, KIAA1704 /// LOC100996395 / Fold change vs veh, KIAA1704 /// LOC100996395 / RFU, ING1 / Fold change vs veh, ING1 / RFU, TRMT61B / Fold change vs veh, TRMT61B / RFU, FUBP3 / Fold change vs veh, FUBP3 / RFU, TP53 / Fold change vs veh, TP53 / RFU, TNKS2 / Fold change vs veh, TNKS2 / RFU, ZFP14 / Fold change vs veh, ZFP14 / RFU, ACTR2 / Fold change vs veh, ACTR2 / RFU, PPP3R1 / Fold change vs veh, PPP3R1 / RFU, PIK3R1 / Fold change vs veh, PIK3R1 / RFU, HNRNPA1 / Fold change vs veh, HNRNPA1 / RFU, RNF170 / Fold change vs veh, RNF170 / RFU, ZNF28 / Fold change vs veh, ZNF28 / RFU, RNGTT / Fold change vs veh, RNGTT / RFU, OGT / Fold change vs veh, OGT / RFU, BRD1 / Fold change vs veh, BRD1 / RFU, MARS / Fold change vs veh, MARS / RFU, ZNF655 / Fold change vs veh, ZNF655 / RFU, FAHD1 / Fold change vs veh, FAHD1 / RFU, BDP1 / Fold change vs veh, BDP1 / RFU, LRRCC1 / Fold change vs veh, LRRCC1 / RFU, ARID1A / Fold change vs veh, ARID1A / RFU, ZNF146 / Fold change vs veh, ZNF146 / RFU, ZNF330 / Fold change vs veh, ZNF330 / RFU, GPN3 / Fold change vs veh, GPN3 / RFU, C9orf123 / Fold change vs veh, C9orf123 / RFU, N4BP2L2 / Fold change vs veh, N4BP2L2 / RFU, ARFIP1 / Fold change vs veh, ARFIP1 / RFU, FAM179B / Fold change vs veh, FAM179B / RFU, BCL10 / Fold change vs veh, BCL10 / RFU, UHRF1BP1L / Fold change vs veh, UHRF1BP1L / RFU, BET1 / Fold change vs veh, BET1 / RFU, CNOT2 / Fold change vs veh, CNOT2 / RFU, ZNF268 / Fold change vs veh, ZNF268 / Fold change vs veh, ZNF507 / RFU, DGCR2 / Fold change vs veh, DGCR2 / RFU, WDSUB1 / Fold change vs veh, WDSUB1 / Fold change vs veh, HSP90B1 /// MIR3652 / RFU, ADSS / Fold change vs veh, ADSS / RFU, GK / Fold change vs veh, GK / RFU, ZNF148 / Fold change vs veh, ZNF148 / RFU, TAF9 / Fold change vs veh, TAF9 / RFU, SLC1A5 / Fold change vs veh, SLC1A5 / RFU, SLMO2 / Fold change vs veh, SLMO2 / RFU, ABCC4 / Fold change vs veh, ABCC4 / RFU, LOC101060439 /// RAP1B / Fold change vs veh, LOC101060439 /// RAP1B / RFU, RFX7 / Fold change vs veh, RFX7 / RFU, GTPBP10 / Fold change vs veh, GTPBP10 / RFU, CNEP1R1 / Fold change vs veh, CNEP1R1 / RFU, BIVM-ERCC5 /// ERCC5 / Fold change vs veh, BIVM-ERCC5 /// ERCC5 / RFU, ILF3 / Fold change vs veh, ILF3 / RFU 11762660_at / Fold change /veh 11762660_at / RFU VCAN (11757783_s_at) / Fold change /veh VCAN (11757783_s_at) / RFU DDX43 (11728927_at) / Fold change /veh DDX43 (11728927_at) / RFU KRT8 (11758188_x_at) / Fold change /veh KRT8 (11758188_x_at) / RFU NKD1 (11759106_at) / Fold change /veh NKD1 (11759106_at) / RFU SRD5A1 (11742802_a_at) / Fold change /veh SRD5A1 (11742802_a_at) / RFU TPSAB1 /// TPSB2 (11721975_s_at) / Fold change /veh TPSAB1 /// TPSB2 (11721975_s_at) / RFU GSTM3 (11746129_a_at) / Fold change /veh GSTM3 (11746129_a_at) / RFU IL23R (11737362_x_at) / Fold change /veh IL23R (11737362_x_at) / RFU TMEM51 (11727254_a_at) / Fold change /veh TMEM51 (11727254_a_at) / RFU PIWIL2 (11732686_x_at) / Fold change /veh PIWIL2 (11732686_x_at) / RFU ORM1 (11744905_x_at) / Fold change /veh ORM1 (11744905_x_at) / RFU CCDC152 (11743942_at) / Fold change /veh CCDC152 (11743942_at) / RFU ECM1 (11717891_a_at) / Fold change /veh ECM1 (11717891_a_at) / RFU IL23R (11748794_a_at) / Fold change /veh IL23R (11748794_a_at) / RFU TNFAIP8L3 (11732012_x_at) / Fold change /veh TNFAIP8L3 (11732012_x_at) / RFU MBOAT4 (11741988_at) / Fold change /veh MBOAT4 (11741988_at) / RFU 11764193_at / Fold change /veh 11764193_at / RFU TMEM53 (11763286_at) / Fold change /veh TMEM53 (11763286_at) / RFU MAGEB2 (11727129_at) / Fold change /veh MAGEB2 (11727129_at) / RFU TMEM200A (11744735_a_at) / Fold change /veh TMEM200A (11744735_a_at) / RFU CCDC152 (11751479_a_at) / Fold change /veh CCDC152 (11751479_a_at) / RFU FAM211A (11726209_a_at) / Fold change /veh FAM211A (11726209_a_at) / RFU RGS16 (11746705_a_at) / Fold change /veh RGS16 (11746705_a_at) / RFU VCAN (11755009_s_at) / Fold change /veh VCAN (11755009_s_at) / RFU RHOB (11743442_s_at) / Fold change /veh RHOB (11743442_s_at) / RFU RGS16 (11720943_a_at) / Fold change /veh RGS16 (11720943_a_at) / RFU RGS16 (11720944_at) / Fold change /veh RGS16 (11720944_at) / RFU, VPS4B / Fold change vs veh, VPS4B / RFU, CREB1 / Fold change vs veh, CREB1 / RFU, DNAJC13 / Fold change vs veh, DNAJC13 / RFU, GNAQ / Fold change vs veh, GNAQ / RFU, CDK5R1 / Fold change vs veh, CDK5R1 / RFU, ZRANB3 / Fold change vs veh, ZRANB3 / RFU, CUL4A / Fold change vs veh, CUL4A / RFU, CCNY / Fold change vs veh, CCNY / RFU, UFL1 / Fold change vs veh, UFL1 / RFU, COG3 / Fold change vs veh, COG3 / RFU, DIAPH2 / Fold change vs veh, DIAPH2 / RFU, SKA2 / Fold change vs veh, SKA2 / RFU, AFF3 / Fold change vs veh, AFF3 / RFU, LMF1 / Fold change vs veh, LMF1 / RFU, IPO11 / Fold change vs veh, IPO11 / RFU, DFFB / Fold change vs veh, DFFB / RFU, FOXP1 / Fold change vs veh, FOXP1 / RFU, CARD8 / Fold change vs veh, CARD8 / RFU, STRN3 / Fold change vs veh, STRN3 / RFU, ADK / Fold change vs veh, ADK / RFU, RASSF2 / Fold change vs veh, RASSF2 / RFU, WIPF1 / Fold change vs veh, WIPF1 / RFU, LARP1B / Fold change vs veh, LARP1B / RFU, RASA1 / Fold change vs veh, RASA1 / RFU, RB1 / Fold change vs veh, RB1 / RFU, PPFIA1 / Fold change vs veh, PPFIA1 / RFU, MAT2A / Fold change vs veh, MAT2A / RFU, CCT5 / Fold change vs veh, CCT5 / RFU, WDR92 / Fold change vs veh, WDR92 / RFU, CUX1 / Fold change vs veh, CUX1 / RFU, TTC7A / Fold change vs veh, TTC7A / RFU, TMEM135 / Fold change vs veh, TMEM135 / RFU, DEPTOR / Fold change vs veh, DEPTOR / RFU, CPM / Fold change vs veh, CPM / RFU, DNAJB6 / Fold change vs veh, DNAJB6 / RFU, CACNA2D3 / Fold change vs veh, CACNA2D3 / RFU, DTX4 / Fold change vs veh, DTX4 / RFU, TFCP2 / Fold change vs veh, TFCP2 / RFU, GMCL1 /// GMCL1P1 / Fold change vs veh, GMCL1 /// GMCL1P1 / RFU, AEBP2 / Fold change vs veh, AEBP2 / RFU, SNHG1 /// SNORD22 /// SNORD25 /// SNORD26 /// SNORD27 /// SNORD28 /// SNORD29 /// SNORD31 / Fold change vs veh, SNHG1 /// SNORD22 /// SNORD25 /// SNORD26 /// SNORD27 /// SNORD28 /// SNORD29 /// SNORD31 / Fold change (Aza/veh), C12orf56 (ProbeSet 11735607_a_at) / Fold change (ACY-1035/veh), C12orf56 (ProbeSet 11735607_a_at) / Fold change (Aza/veh), FGFR1OP (ProbeSet 11751329_s_at) / Fold change (ACY-1035/veh), FGFR1OP (ProbeSet 11751329_s_at) / Fold change (Aza/veh), VPS36 (ProbeSet 11739960_a_at) / Fold change (ACY-1035/veh), VPS36 (ProbeSet 11739960_a_at) / RFU SYPL1 (11715823_x_at) / Fold change /veh SYPL1 (11715823_x_at) / RFU IGFBP7 (11715501_s_at) / Fold change /veh IGFBP7 (11715501_s_at) / RFU REEP3 (11722064_at) / Fold change /veh REEP3 (11722064_at) / RFU IGLL1 (11728026_x_at) / Fold change /veh IGLL1 (11728026_x_at): dose or concentration left out as unconfirmed
Details: ProbeSet 11747889_x_at; LIST B

Nc1ncn([C@@H]2O[C@H](CO)[C@@H](O)[C@H]2O)c(=O)n1 [azacitidine]
RFU, SH3YL1: 57.53 RFU
